# Reference: patent US7803842B2, “Choline esters useful for the treatment of cognitive dysfunctions and enhancement of memory, learning and cognition” (priority 2004, dated 2010)
# “Also recorded” adds a separate entry of the source. Counter-ions that a name gives are not always drawn.
# Tests used:
# [1] = tested on: scopolamine impaired rats; assay: Water maze hidden platform task in scopolamine impaired rats; format: in vivo, Long Evans rats; conditions: for Hidden platform task performance (latency, swim path length) vs saline controls; reversal of scopolamine effect: donepezil 0.75 mg/kg p.o. daily with scopolamine 0.1 mg/kg i.p., test days 3 and 4, hydrochloride
# Method: (§1) Male Long-Evans rats (3 months of age) were administered either saline, donepezil (0.75 mg/kg), or PP-100 (3.0 mg/kg or 40.0 mg/kg) by oral gavage for 10 days prior to (and during the 5 days of) testing in a water maze task. The compounds were evaluated for their ability to reverse the amnestic effects of scopolamine (0.1 mg/kg) in this task.
# The animals were randomly assigned to one of 5 groups (n=10/group) and administered one daily dose of either of two doses of the choline derivative PP-100 (3 or 40 mg/kg), donepezil HCL (0.75 mg/kg), or vehicle (0.9% saline), via oral gavage (p.o.) beginning ten days prior to initiation of the water maze task. Daily dosing continued through the initial day of visible platform testing and the subsequent five days of water maze testing (i.e., on hidden platform test days as well as probe trial days). On both the single day of pre-testing (Visible Platform Test) as well as on each day of watermaze testing, thirty minutes prior to the first trial, 0.1 mg/kg of scopolamine hydrobromide was administered i.p. to four of the five groups (i.e., excluding the saline-saline group). Fifteen minutes after the scopolamine injection (or vehicle) each group was dosed with one of the test articles or vehicle (see Table 1 for an overview of the testing protocol). Test articles were prepared according to the supplied instructions, and aliquots of the solutions were stored (at −20° C.). Test agents were freshly thawed at the time of use.
# In order to test and compare the effects of PP-100 on both acquisition and recall of spatial memories, the water maze hidden platform task was utilized. […] Scopolamine is known to impair performance in the water maze task, and blockage of scopolamine effects is known to reduce impairment in the water maze (e.g., Terry et al., Drug Dev. Res., 47:97 (1999).
# The water maze experiment was performed in a circular pool (diameter=180 cm, height=76 cm) made of black plastic. The pool was filled with water to a depth of 35 cm and the water was maintained at 25.0±1.0° C. The pool was located in a large room with a number of extra-maze visual cues including geometric images (squares, triangles, circles etc.) hung on the wall, diffuse lighting, and black curtains used to hide the experimenter (visually) and the resting test subjects. Swimming activity of each rat was monitored via a television camera mounted overhead, which relayed information including latency to find the platform, total distance traveled, time and distance spent in each quadrant etc. to a video tracking system (Actimetrics, Evanston, Ill.).
# For the water maze test itself, the escape platform was submerged. […]
# [2] = tested on: scopolamine impaired rats; assay: Water maze visible platform task (pre-test) in scopolamine impaired rats; format: in vivo, Long Evans rats; conditions: scopolamine 0.1 mg/kg i.p.; hydrobromide
# Method: as §1
# The animals were randomly assigned to one of 5 groups (n=10/group) and administered one daily dose of either of two doses of the choline derivative PP-100 (3 or 40 mg/kg), donepezil HCL (0.75 mg/kg), or vehicle (0.9% saline), via oral gavage (p.o.) beginning ten days prior to initiation of the water maze task. Daily dosing continued through the initial day of visible platform testing and the subsequent five days of water maze testing (i.e., on hidden platform test days as well as probe trial days). […]
# The water maze experiment was performed in a circular pool (diameter=180 cm, height=76 cm) made of black plastic. […] Swimming activity of each rat was monitored via a television camera mounted overhead, which relayed information including latency to find the platform, total distance traveled, time and distance spent in each quadrant etc. to a video tracking system (Actimetrics, Evanston, Ill.). […]
Structure (SMILES),"Hidden platform task performance (latency, swim path length) vs saline controls; reversal of scopolamine effect [1]","Hidden platform task performance (latency, swim path length) vs saline controls; reversal of scopolamine effect ([1]; listed as Donepezil)","Hidden platform task performance vs saline controls ([1]; with scopolamine 0.1 mg/kg i.p., donepezil 0.75 mg/kg or PP-100 3 or 40 mg/kg p.o., test days 1 and 2)",Effect on ability to locate a highly visible platform [2],"Effect on learning in the hidden platform task (latency, swim distance) ([1]; scopolamine 0.1 mg/kg i.p. 30 minutes before first trial)"
"COc1cc2c(cc1OC)C(=O)C(CC1CCN(Cc3ccccc3)CC1)C2 (racemic) [donepezil, (±)-2-[(1-benzyl-4-piperidyl)methyl]-5,6-dimethoxy-1-indanone hydrochloride]",did not differ (statistically) from saline controls,appeared to at least partially reverse the effects of scopolamine,generally performed less efficiently than saline controls,–,–
"CN1[C@@H]2C[C@@H](OC(=O)[C@H](CO)c3ccccc3)C[C@H]1[C@@H]1O[C@@H]12 [scopolamine, scopolamine hydrobromide]",–,–,–,tended to produce impairment; also recorded: led to some impairment,impaired learning
